The values below come from patent US11471456B2, “Formulations comprising heterocyclic protein kinase inhibitors” (Sumitomo Pharma Oncology, Inc., priority 2019, dated 2022).

The solubility is how much of the substance goes into solution per volume. Higher therefore signals a readily soluble substance. Broadly, the bioavailability is dose-corrected exposure relative to a reference, in per cent.

Converted amounts (≈) assume the structure as drawn. Where two headings read alike, the source gives them in different places.

Data set [1] in a line: DVS (hygroscopicity) of free base and salts. Type of data set: physicochemical.
Data set [2] is described as follows: HPLC solubility in SGF, FaSSIF, FeSSIF at 37° C. Type of data set: physicochemical. Conditions: thermodynamic from solid. How it is done:
HPLC Method. The chromatographic conditions for HPLC are summarized below.
The samples were then centrifuged and filtered. Saturated solutions were diluted with MeOH:H2O=1:2 (v:v), and the concentrations were determined by HPLC. The final pH of the saturated solutions was tested.

Data set [3] in a line: Phase 1 first-in-human escalating dose study in patients with advanced solid tumors. Type of data set: in vivo. As to the method:
The study is currently enrolling Cohort 3 at a dose level of 1080 mg qd.

The nature of data set [4]: Oral bioavailability of the compound of structure (I) in rats with different excipients. To be noted: for bioavailability: rat, in vivo, po. Type of data set: in vivo.

For the compound `CC(C)(O)C1CCC(Nc2ccc3ncc(-c4cccc(C(F)(F)F)c4)n3n2)CC1.Cl` [Hydrochloric acid salt, 2-((1R,4R)-4-((3-(3-(trifluoromethyl)phenyl)imidazo[1,2-b]pyridazin-6-yl)amino)cyclohexyl)propan-2-ol hydrochloride], in data set [1], the “DVS (weight gain, %)” value came to 2.83% and the “hygroscopicity by DVS compared with methanesulfonic acid salt” value was “much lower hygroscopicity”.
Consider `CC(C)(O)[C@H]1CC[C@H](Nc2ccc3ncc(-c4cccc(C(F)(F)F)c4)n3n2)CC1` [compound of structure (I), 2-((1R,4R)-4-((3-(3-(trifluoromethyl)phenyl)imidazo[1,2-b]pyridazin-6-yl)amino)cyclohexyl)propan-2-ol], for which the solubility at 0.5 h in data set [2] (simulated gastric fluid, SGF) is 1360 µg/mL (≈ 3250 µM); in data set [2] (FaSSIF), 10.4 µg/mL (≈ 24.9 µM); in data set [2] (FeSSIF), 96.8 µg/mL (≈ 231 µM). Moreover, the solubility at 2 h was 1270 µg/mL (≈ 3030 µM) in data set [2] (simulated gastric fluid, SGF) and 9.81 µg/mL (≈ 23.4 µM) in data set [2] (FaSSIF). Also, the solubility at 24 h in data set [2] (simulated gastric fluid, SGF) was 903 µg/mL (≈ 2160 µM); in data set [2] (FaSSIF), 7.91 µg/mL (≈ 18.9 µM); in data set [2] (FeSSIF), 91.5 µg/mL (≈ 219 µM). Further, the “changes in hematological parameters including platelets, WBC counts and hemoglobin” value in data set [3] (480 mg qd and 720 mg qd cohorts (3 patients each), first cycle, preliminary data) is “no marked changes in hematological parameters”. Besides, in data set [3] (480 mg qd and 720 mg qd cohorts, preliminary data), the “side effects, regardless of causality, occurring with a frequency equal to 2 or greater” value is “diarrhea, nausea and vomiting”. Moreover, the “severity of the side effect events” value in data set [3] (all Grade 1, except one event that was Grade 2) is recorded as “mild in severity”. The “DVS (weight gain, %)” value in data set [1] is listed as 1.60%. The “hygroscopicity by DVS compared with methanesulfonic acid salt” value in data set [1] is “much lower hygroscopicity”. Besides, the “Oral Bioavailability (% F)” value in data set [4] (Dry Powder (capsule), administered alone) is recorded as “poor bioavailability”. For the same compound, the bioavailability came to 0% in data set [4] (Dry Powder (capsule), administered alone, read-out: Oral Bioavailability (% F)); 38% in data set [4] (excipient 10% EtOH/10% PEG300/20% HS15, read-out: Oral Bioavailability (% F)); 2% in data set [4] (excipient 10% EtOH/40% PG, read-out: Oral Bioavailability (% F)); 39% in data set [4] (excipient 10% PS-20, read-out: Oral Bioavailability (% F)); 15% in data set [4] (excipient 10% PS-20/50% PEG400, read-out: Oral Bioavailability (% F)); 0% in data set [4] (excipient Corn Oil, read-out: Oral Bioavailability (% F)). Moreover, the bioavailability in data set [4] (excipient HPβCD, read-out: Oral Bioavailability (% F)) stood at 11%.
